Measurements as given in patent US7897574B2, “Pharmaceutical composition for treating haemorrhagic shock and its consecutive symptoms” (Ikaria Development Subsidiary Two LLC, priority 2005, dated 2011).

Experiments:
[1] = system: Domestic male landrace pigs; assay: Hemorrhagic shock in domestic pigs; format: in vivo, pig
Description: Domestic male landrace pigs weighing 20-35 kg were fed a standard diet and received water ad libitum. All procedures were performed in concurrence with the AAALAC guidelines and according to the Guide for the Care of Laboratory Animals (Department of Health and Human Services, National Institutes of Health, Publication Nr. 86-23). Pigs were premedicated with azaperon (4 mg/kg). The ear vein was cannulated and the anesthetic propofol was applied. The animals were fully instrumented and equlibrated for 1 hr in order to recieve a stable baseline. Subsequently, the animals (n=16) were exsanguinated until a mean arterial pressure of 40 mm Hg was achieved. They were kept at this level constituting a hemorrhagic shock for 1 hr. After this time the lost blood volume was resubstituted with shed blood and salt solutions (cristalloids). In addition the animals received a bolus dose of the peptide Bβ15-42 (n=8) or a random sequence peptide (n=8) in a dose of […] each as a single intravenous bolus. During the ensuing reperfusion period over the duration of 5 hrs, Horrowitz index (measuring blood oxigenation), PEEP (positive end-expiratory pressure in mm Hg) and cardiac ejection volume were determined at various timepoints.
In the following tables the following timepoints were used:
• Timepoint 1: 1 hr before hemorrhagic shock • Timepoint 2: during hemorrhagic shock • Timepoint 3: 1 hr after the start of reperfusion • Timepoint 4: 3 hrs after the start of reperfusion • Timepoint 5: 5 hrs after the start of reperfusion

[2] = system: human umbilical vein endothelial cells (HUVEC); assay: Inhibition of the release of interleukin-6 from endothelial cells; format: cell-based; conditions: 4 hrs
Description: In addition we have identified a specific assay for the determination of the claimed activity of the peptides, which consists of measurement of the inhibition of the release of interleukin-6 from endothelial cells. […] This assay is therefore also part of the invention.
96-well cell culture plates were coated with 1% gelatine. Into each well, approx. 23,000 human umbilical vein endothelial cells (HUVEC) in 200 μl of medium were pipetted. The HUVECs were taken from passage 4 form a pool of four different donors. The medium used for dilution was standard medium with 10% FCS, ECGS in Iscove's modified Dulbecco medium (Petzelbauer et al., J Immunol. 151:5062-5072, 1993). Within approx. 18 hrs at 37° C. in an incubator, a confluent cell monolayer is formed. The supernatant was removed and replaced with medium containing either NDSK-II alone or NDSK-II plus peptide Bβ15Δ([…]).
The total final volume was 200 μl. After 4 hrs of incubation at 37° C. under 5% CO2, the cell culture supernatant was again removed and centrifuged for 10 min at 4° C. at 3000 U/min. The concentration of interleukin-6 (IL-6) was measured using a commercial assay (IL-6 Quantikine Immonuassay (R&D Sytems; Catalog#: D6050; Lot: 231361). Calibration was done according to the standard protocol supplied by the assay manufacturer with various dilutions of recombinant IL-6 and medium. Readings of the optical density were taken at a wavelength of 450 nm with a reference wavelength of 550 nm.

[3] = in vivo, ischemia/reperfusion; WO 02/48180; cited from earlier work
[4] = target: T1, recombinant human VE-cadherin FC fusion protein (Homo sapiens, UniProt P33151); assay: ELISA: binding of FLAG-tagged peptide to coated VE-cadherin; conditions: VE-cadherin coated 8 nM/ml
T1 construct: purchased R&D Systems, Minneapolis
T1 sequence (P33151 with tags, fused parts or gaps limits assumed): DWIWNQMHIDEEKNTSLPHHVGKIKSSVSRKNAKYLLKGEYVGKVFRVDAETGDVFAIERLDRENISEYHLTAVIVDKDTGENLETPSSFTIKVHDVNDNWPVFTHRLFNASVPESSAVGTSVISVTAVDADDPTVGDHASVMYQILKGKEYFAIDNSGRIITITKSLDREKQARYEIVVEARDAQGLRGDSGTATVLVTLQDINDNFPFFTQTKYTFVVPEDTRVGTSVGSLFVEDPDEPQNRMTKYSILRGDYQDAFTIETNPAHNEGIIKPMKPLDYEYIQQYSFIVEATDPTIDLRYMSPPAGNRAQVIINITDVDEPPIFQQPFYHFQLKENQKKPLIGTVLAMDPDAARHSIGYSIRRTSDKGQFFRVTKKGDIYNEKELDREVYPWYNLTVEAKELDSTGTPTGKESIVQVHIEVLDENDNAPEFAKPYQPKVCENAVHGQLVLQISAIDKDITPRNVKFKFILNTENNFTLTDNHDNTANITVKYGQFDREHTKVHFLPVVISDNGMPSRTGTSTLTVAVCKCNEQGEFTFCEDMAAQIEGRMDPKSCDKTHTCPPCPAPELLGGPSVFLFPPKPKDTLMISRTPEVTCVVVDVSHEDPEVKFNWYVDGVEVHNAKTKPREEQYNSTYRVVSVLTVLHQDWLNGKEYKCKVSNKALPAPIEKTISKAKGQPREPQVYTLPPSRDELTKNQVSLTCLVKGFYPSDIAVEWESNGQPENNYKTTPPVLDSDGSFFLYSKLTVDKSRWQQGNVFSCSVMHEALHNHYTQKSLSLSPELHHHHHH
Description: We have developed a modified ELISA working with the same principles described by others, but the purpose of the herein described ELISA is not to quantify fibrin degradation products, but to search for proteins, peptides or compounds which interfere with the binding of the Bbeta15-42 sequence and the VE-cadherin. […] Into this system one can introduce any other additional substance and measure if this substance inhibits VE-cadherin/Bbeta15-42 binding.
In detail, 96 well protein immobilizer plates (Exiqon, Vedbaek, DK) were coated with recombinant human VE-cadherin FC fusion protein (8 nM/ml; R&D Systems, Minneapolis) in PBS and were left overnight at 4° C. Plates were then washed and incubated with peptide Bβ15-42 ([…]) tagged with a FLAG-sequence (DYKDDDDK) at the C-terminus of the peptide or with a FLAG-tagged random peptide ([…]) at a concentration of 0-80 μMol/ml. After washing, bound FLAG-tagged peptide was detected by incubation with a peroxidase-labelled anti-FLAG antibody (Sigma, St. Louis, USA) and chromogenic substrate. Optical density was determined by an ELISA plate reader set at a wavelength of 450 nm. Data represent the mean of three independent experiments, each performed in triplicates.

[5] = Timepoint 1: 1 hr before hemorrhagic shock (before dosing)
[6] = Timepoint 2: during hemorrhagic shock (before dosing)
[7] = Timepoint 3: 1 hr after the start of reperfusion, 2.4 mh/kg single intravenous bolus
[8] = Timepoint 4: 3 hrs after the start of reperfusion, 2.4 mh/kg single intravenous bolus
[9] = Timepoint 5: 5 hrs after the start of reperfusion, 2.4 mh/kg single intravenous bolus

GHRPLDKKREEAPSLRPAPPPISGGGYR [peptide Bβ15-42, peptide matching amino acids 15-42 of the Bβ chain of human fibrin]
EV (cardiac ejection volume) [1, 5]: 44 ± 2 mL | Horrowitz Index (blood oxigenation) [1, 5]: 465 +/− 20 | PEEP (positive end-expiratory pressure) [1, 5]: 4 +/− 0.1 mmHg | EV (cardiac ejection volume) [1, 6]: 6 ± 1 mL | Horrowitz Index (blood oxigenation) [1, 6]: 450 +/− 20 | PEEP (positive end-expiratory pressure) [1, 6]: 4 +/− 0.1 mmHg | EV (cardiac ejection volume) [1, 7]: 31 ± 4 mL | Horrowitz Index (blood oxigenation) [1, 7]: 420 +/− 10 | PEEP (positive end-expiratory pressure) [1, 7]: 4.1 +/− 0.2 mmHg | EV (cardiac ejection volume) [1, 8]: 32 ± 3 mL | Horrowitz Index (blood oxigenation) [1, 8]: 410 +/− 20 | PEEP (positive end-expiratory pressure) [1, 8]: 4.2 +/− 0.3 mmHg | EV (cardiac ejection volume) [1, 9]: 37 ± 4 mL | Horrowitz Index (blood oxigenation) [1, 9]: 420 +/− 30 | PEEP (positive end-expiratory pressure) [1, 9]: 4.3 +/− 0.2 mmHg | IL-6 concentration ([2]; 0.3 μg/ml NDSK-II + 10 μg/ml peptide): 15 ± 2 pg/mL | IL-6 concentration ([2]; 3 μg/ml NDSK-II + 10 μg/ml peptide): 12 ± 3(p < 0.05 cmpd with pg/ml | IL-6 concentration ([2]; 30 μg/ml NDSK-II + 10 μg/ml peptide): 13 ± 1(p < 0.05 cmpd with pg/ml | myocardial infarct size (in words) [3]: reduces myocardial infarct sizes

15-42 FLAG: peptide Bβ15-42 (GHRPLDKKREEAPSLRPAPPPISGGGYR) tagged with a FLAG-sequence (DYKDDDDK) at the C-terminus (GHRPLDKKREEAPSLRPAPPPISGGGYRDYKDDDDK)
binding to VE-cadherin, optical density (450 nm), mean ([4]; FLAG-tagged peptide 0.23 μM/ml): 0.01 | binding to VE-cadherin, optical density (450 nm), mean ([4]; FLAG-tagged peptide 0.7 μM/ml): 0.02 | binding to VE-cadherin, optical density (450 nm), mean ([4]; FLAG-tagged peptide 2.3 μM/ml): 0.08 | binding to VE-cadherin, optical density (450 nm), mean ([4]; FLAG-tagged peptide 7 μM/ml): 0.33 | binding to VE-cadherin, optical density (450 nm), mean ([4]; FLAG-tagged peptide 14 μM/ml): 0.92 | binding to VE-cadherin, optical density (450 nm), mean ([4]; FLAG-tagged peptide 21 μM/ml): 1.3 | binding to VE-cadherin, optical density (450 nm), mean ([4]; FLAG-tagged peptide 35 μM/ml): 1.5 | binding to VE-cadherin, optical density (450 nm), mean ([4]; FLAG-tagged peptide 46 μM/ml): 1.93 | binding to VE-cadherin, optical density (450 nm), mean ([4]; FLAG-tagged peptide 70 μM/ml): 2.1
